Assay: Inhibition of IL5-mediated proliferation of mouse Y16 cells by WST1 assay

| Compound | IC50 [µM] |
| --- | --- |
| COc1cc(-c2coc3cccc(OCC4CCCCC4)c3c2=O)ccc1O [5-(Cyclohexylmethoxy)-3-(4-hydroxy-3-methoxyphenyl)-4H-chromen-4-one] | > 30 |
| CCc1ccc(-c2coc3cccc(OCC4CCCCC4)c3c2=O)cc1 [5-(Cyclohexylmethoxy)-3-(4-ethylphenyl)-4H-chromen-4-one] | > 30 |
| O=Cc1ccc(/C=C2\Oc3cccc(OCC4CCCCC4)c3C2=O)cc1 [(Z)-4-{[4-(Cyclohexylmethoxy)-3-oxobenzofuran-2(3H)-ylidene]methyl}benzaldehyde] | > 30 |
| O=C1/C(=C/c2ccc(Cl)cc2)Oc2cccc(OCC3CCCCC3)c21 [(Z)-2-(4-Chlorobenzylidene)-4-(cyclohexylmethoxy)benzofuran-3(2H)-one] | > 30 |
| COCOc1ccc(-c2coc3cccc(OCC4CCCCC4)c3c2=O)cc1 [5-(Cyclohexylmethoxy)-3-[4-(methoxymethoxy)phenyl]-4H-chromen-4-one] | > 30 |
| COc1ccc(-c2coc3cccc(OCC4CCCCC4)c3c2=O)cc1 [5-(Cyclohexylmethoxy)-3-(4-methoxyphenyl)-4H-chromen-4-one] | > 30 |
| COC(=O)c1ccc(/C=C2\Oc3cccc(OCC4CCCCC4)c3C2=O)cc1 [Methyl(Z)-4-[4-(cyclohexylmethoxy)-3-oxobenzofuran-2(3H)-ylidene]methylbenzoate] | > 30 |
| O=C1/C(=C/c2ccc([N+](=O)[O-])cc2)Oc2cccc(OCC3CCCCC3)c21 [(Z)-4-(Cyclohexylmethoxy)-2-(4-nitrobenzylidene)benzofuran-3(2H)-one] | > 30 |

Further lines, results first:

| IC50 [µM] | Compound |
| --- | --- |
| > 30 | COc1ccc(-c2coc3cccc(OCC4CCCCC4)c3c2=O)cc1OC [5-(Cyclohexylmethoxy)-3-(3,4-dimethoxyphenyl)-4Hchromen-4-one] |
| > 30 | O=C1/C(=C/c2ccccc2)Oc2cccc(OCC3CCCCC3)c21 [(Z)-2-(Benzylidene)-4-(cyclohexylmethoxy)benzofuran-3(2H)-one] |
| 17.4 | COc1cc(-c2coc3cccc(OCC4CCCCC4)c3c2=O)ccc1OCc1ccccc1 [3-(4-(Benzyloxy)-3-methoxyphenyl)-5-(cyclohexylmethoxy)-4H-chromen-4-one] |
| > 30 | CCc1ccc(/C=C2\Oc3cccc(OCC4CCCCC4)c3C2=O)cc1 [(Z)-4-(cyclohexylmethoxy)-2-(4-ethylbenzylidene)benzofuran-3(2H)-one] |
